Reference: patent publication US10577329B2, “Fused-bicyclic aryl quinolinone derivatives as mutant-isocitrate dehydrogenase inhibitors” (FORMA Therapeutics, Inc., priority 2015, dated 2020)
Like-named read-outs stand apart in the source and are kept apart here.

Key:
[1] = test system: HCT116 isogenic IDH1-R132C mutant cells; test: Cellular 2-HG assay using HCT116 mutant IDH1-R132C cells; assay type: cell-based; conditions: Homo sapiens, read-out: HCT116 IDH1 R132C IC50
Method: (§1) HCT116 isogenic IDH1-R132H and IDH1-R132C mutant cells were cultured in growth media (McCoy's 5A, 10% fetal bovine serum, 1× antibiotic-antimycotic solution and 0.3 mg/mL G418) in 5% CO2 in an incubator at 37° C. To prepare the assay, cells were trypsinized and resuspended in assay media (McCoy's 5A with no L-glutamine, 10% fetal bovine serum, 1× antibiotic-antimycotic solution and 0.3 mg/mL G418). An aliquot of 10,000 cells/100 μL was transferred to each well of a clear 96-well tissue culture plate. The cells were incubated in 5% CO2 at 37° C. in an incubator overnight to allow for proper cell attachment. An aliquot of 50 μL of compound containing assay media were then added to each well and the assay plate was kept in 5% CO2 at 37° C. in an incubator for 24 hours. The media was then removed from each well and 150 μL of a methanol/water mixture (80/20 v/v) was added to each well. The plates were kept at −80° C. freezer overnight to allow for complete cell lysis. An aliquot of 125 μL of extracted supernatant was analyzed by RapidFire high-throughout-mass spectrometry (Agilent) to determine the cellular 2-HG level. The IC50 of a given compound was calculated by fitting the dose response curve of cellular 2-HG inhibition at a given concentration with the four parameter logistic equation

[2] = test system: HCT116 isogenic IDH1-R132H mutant cells; test: Cellular 2-HG assay using HCT116 mutant IDH1-R132H cells; assay type: cell-based; conditions: Homo sapiens, read-out: HCT116 IDH1 R132H IC50
Method: as §1

[3] = biological target: IDH1-R132C recombinant protein (Homo sapiens, UniProt O75874, R132C); test: IDH1-R132C enzymatic assay (NADPH consumption, diaphorase/resazurin readout); assay type: biochemical; conditions: 10 nM IDH1-R132C, inhibition of NADPH consumption; read-out: Enzyme IDH1 R132C IC50
Method: (§2) Example 34—IDH1-R132H and IDH1-R132C Enzymatic Assay
(§3) Assays were performed in a 384-well black plate. An aliquot of 250 nL of compound was incubated with 10 μL of 30 nM IDH1-R132H or 10 nM IDH1-R132C recombinant protein in assay buffer (50 mM Tris pH=7.5, 150 mM NaCl, 5 mM MgCl2, 0.1% (w/v) Bovine Serum Albumin, and 0.01% Triton X-100) in each well at 25° C. for 15 minutes. After the plate was centrifuged briefly, an aliquot of 10 μL of 2 mM α-ketoglutarate and 20 μM NADPH solution prepared in assay buffer was then added to each well and the reaction was maintained at 25° C. for 45 minutes. An aliquot of 10 μL of diaphorase solution (0.15 U/mL diaphorase and 30 μM Resazurin in assay buffer) was added to each well. The plate was maintained at 25° C. for 15 minutes and then read on a plate reader with excitation and emission wavelengths at 535 nm and 590 nm, respectively. The IC50 of a given compound was calculated by fitting the dose response curve of inhibition of NADPH consumption at a given concentration with the four parameter logistic equation.

[4] = biological target: IDH1-R132H recombinant protein (Homo sapiens, UniProt O75874, R132H); test: IDH1-R132H enzymatic assay (NADPH consumption, diaphorase/resazurin readout); assay type: biochemical; conditions: 30 nM IDH1-R132H, inhibition of NADPH consumption; read-out: Enzyme IDH1 R132H IC50
Method: as §2, §3

[5] = HCT-116, cellular 2-HG inhibition, 24 hours, RapidFire mass spectrometry

IDH1-R132H recombinant protein, sequence (O75874 whole entry R132H): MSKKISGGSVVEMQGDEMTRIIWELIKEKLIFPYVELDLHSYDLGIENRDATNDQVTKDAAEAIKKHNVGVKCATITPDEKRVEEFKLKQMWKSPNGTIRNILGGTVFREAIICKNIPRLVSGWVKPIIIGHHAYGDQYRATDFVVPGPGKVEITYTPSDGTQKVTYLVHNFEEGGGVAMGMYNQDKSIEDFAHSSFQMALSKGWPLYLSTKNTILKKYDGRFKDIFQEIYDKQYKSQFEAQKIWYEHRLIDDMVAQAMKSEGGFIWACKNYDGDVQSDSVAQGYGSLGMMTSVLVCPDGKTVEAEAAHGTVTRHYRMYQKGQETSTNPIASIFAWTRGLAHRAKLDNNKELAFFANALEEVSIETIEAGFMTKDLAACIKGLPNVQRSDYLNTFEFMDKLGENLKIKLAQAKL
IDH1-R132C recombinant protein, sequence (O75874 whole entry R132C): as the sequence (O75874 whole entry R132H) above, with H132C counted along it

| SMILES | IC50 [1, 5] [nM] | IC50 [2, 5] [nM] | IC50 ([1]; HCT-116, 24 h) [nM] | IC50 ([2]; HCT-116, 24 h) [nM] | IC50 [3] [nM] | IC50 [4] [nM] |
| --- | --- | --- | --- | --- | --- | --- |
| COc1cc2[nH]c(=O)c(C(C)Nc3ncc4c(n3)N(C)C(=O)OC4)cc2cc1Cl (racemic) [Compound I-50, 6-chloro-7-methoxy-3-[1-({1-methyl-2-oxo-1H,2H,4H-pyrimido[4,5-d][1,3]oxazin-7-yl}amino)ethyl]-1,2-dihydroquinolin-2-one] | – | – | < 100 | < 100 | < 100 | < 100 |
| C[C@H](Nc1ncc2cn[nH]c2n1)c1cc2cc(Cl)ccc2[nH]c1=O [Compound I-45, 6-chloro-3-[(1S)-1-({1H-pyrazolo[3,4-d]pyrimidin-6-yl}amino)ethyl]-1,2-dihydroquinolin-2-one] | – | – | 100 to 1000 | 100 to 1000 | – | – |
| COc1cc2[nH]c(=O)c([C@H](C)Nc3ncc4c(n3)N(C)C(=O)OC4)cc2cc1Cl [Compound I-51, 6-chloro-7-methoxy-3-[(1S)-1-({1-methyl-2-oxo-1H,2H,4H-pyrimido[4,5-d][1,3]oxazin-7-yl}amino)ethyl]-1,2-dihydroquinolin-2-one] | – | – | < 100 | < 100 | – | – |
| C[C@H](Nc1ncc2oc(=O)[nH]c2n1)c1cc2cc(Cl)ccc2[nH]c1=O [Compound I-56, 6-chloro-3-[(1S)-1-({2-oxo-2H,3H-[1,3]oxazolo[4,5-d]pyrimidin-5-yl}amino)ethyl]-1,2-dihydroquinolin-2-one] | – | – | > 10000 | 1000 to 10000 | – | – |
| C[C@H](Nc1ncc2oc(=O)n(C)c2n1)c1cc2cc(Cl)ccc2[nH]c1=O [Compound I-57, 6-chloro-3-[(1S)-1-({3-methyl-2-oxo-2H,3H-[1,3]oxazolo[4,5-d]pyrimidin-5-yl}amino)ethyl]-1,2-dihydroquinolin-2-one] | – | – | 100 to 1000 | 100 to 1000 | – | – |
| C[C@H](Nc1ncc2[nH]c(=O)n(C)c2n1)c1cc2cc(Cl)ccc2[nH]c1=O [Compound I-58, 6-chloro-3-[(1S)-1-[(9-methyl-8-oxo-8,9-dihydro-7H-purin-2-yl)amino]ethyl]-1,2-dihydroquinolin-2-one] | – | – | 1000 to 10000 | 100 to 1000 | – | – |
| C[C@H](Nc1ncc2c(n1)NC(=O)C2)c1cc2cc(Cl)ccc2[nH]c1=O [Compound I-60, 6-chloro-3-[(1S)-1-({6-oxo-5H,6H,7H-pyrrolo[2,3-d]pyrimidin-2-yl}amino)ethyl]-1,2-dihydroquinolin-2-one] | 1000 to 10000 | 100 to 1000 | – | – | – | – |

Now from value to compound, other results behind:

| IC50 [1, 5] [nM] | IC50 [2, 5] [nM] | SMILES | IC50 ([1]; HCT-116, 24 h) [nM] | IC50 ([2]; HCT-116, 24 h) [nM] | IC50 [3] [nM] | IC50 [4] [nM] |
| --- | --- | --- | --- | --- | --- | --- |
| < 100 | < 100 | C[C@H](Nc1ncc2c(n1)N(C)C(=O)OC2)c1cc2cc(Cl)ccc2[nH]c1=O [Compound I-47, 6-chloro-3-[(1S)-1-({1-methyl-2-oxo-1H,2H,4H-pyrimido[4,5-d][1,3]oxazin-7-yl}amino)ethyl]-1,2-dihydroquinolin-2-one] | – | – | – | – |
| < 100 | < 100 | C[C@H](Nc1ncc2c(n1)N(C)C(=O)OC2)c1cc2cc(Cl)c(OCc3ccccn3)cc2[nH]c1=O [Compound I-48, 6-chloro-3-[(1S)-1-({1-methyl-2-oxo-1H,2H,4H-pyrimido[4,5-d][1,3]oxazin-7-yl}amino)ethyl]-7-(pyridin-2-ylmethoxy)-1,2-dihydroquinolin-2-one] | – | – | – | – |
| 100 to 1000 | < 100 | C[C@H](Nc1ncc2c(n1)NC(=O)OC2)c1cc2cc(Cl)ccc2[nH]c1=O [Compound I-49, 6-chloro-3-[(1S)-1-({2-oxo-1H,2H,4H-pyrimido[4,5-d][1,3]oxazin-7-yl}amino)ethyl]-1,2-dihydroquinolin-2-one] | – | – | – | – |
| 1000 to 10000 | 100 to 1000 | CC(C)Cn1c(=O)oc2cnc(N[C@@H](C)c3cc4cc(Cl)ccc4[nH]c3=O)nc21 [Compound I-55, 6-chloro-3-[(1S)-1-{[3-(2-methylpropyl)-2-oxo-2H,3H-[1,3]oxazolo[4,5-d]pyrimidin-5-yl]amino}ethyl]-1,2-dihydroquinolin-2-one] | – | – | – | – |
| 100 to 1000 | 100 to 1000 | C[C@H](Nc1ncc2c(n1)N(C)C(=O)C2)c1cc2cc(Cl)ccc2[nH]c1=O [Compound I-61, 6-chloro-3-[(1S)-1-({7-methyl-6-oxo-5H,6H,7H-pyrrolo[2,3-d]pyrimidin-2-yl}amino)ethyl]-1,2-dihydroquinolin-2-one] | – | – | – | – |
